Assay results as given in patent publication US8765814B2, “N-hydroxyformamide derivative and medicament containing same” (Kaken Pharmaceutical Co., Ltd., priority 2010, dated 2014).

Key:
ADAM17 = molecular target: T1, ADAM17 (Homo sapiens, UniProt P78536); test: ADAM17 inhibition test; format: biochemical; details: recombinant ADAM17 (cDNA from THP-1 cells), fluorescent synthetic substrate Nma-[…]Dnp-D-Arg-NH2, 37° C., 1.5 hours; read-out: IC50 Value (50% inhibitory concentration against ADAM17)
T1 construct: made in house; host or cells: mammal cells or insect cells (not specified which)
From the text: The nucleotide sequence of ADAM17 was reported by Moss et al. (Moss, M. L. et al., Nature 1997, 385, 733-736). Accordingly, the cDNA was obtained from THP-1 cells of a human monocytic cell line in the usual way, and this was inserted into an expression vector, and thereafter the vector was transformed in mammal cells or insect cells to thereby make the cells express ADAM17.
In the ADAM17 inhibition test, ADAM17 obtained in the manner as above was used as an enzyme, and a fluorescent synthetic substrate Nma (N-methylanthranylic acid)-[…]Dnp (dinitrophenyl)-D-Arg-NH2 containing the ADAM17-cleaved sequence of a membrane-bound TNF was used as the substrate. Using these in the test, the ADAM17 activity in the presence or absence of the test substance was measured. The method of ADAM17 inhibition test is mentioned below.
(§1) Concretely, 90 μl of an enzyme liquid as prepared to have 14 units in an assay buffer A (50 mM tris-hydrochloride buffer (pH 7.5) containing 200 mM sodium chloride, 5 mM calcium chloride, 10 μM zinc sulfate, 0.004% sodium azide, and 2 mg/mL bovine serum albumin) (the amount of enzyme capable of decomposing 1 pmol of substrate at 25° C. for 1 minute was defined to be 1 unit), and 90 μL a fluorescent synthetic substrate as prepared to be 20 μM in an assay buffer B (50 mM tris-hydrochloride buffer (pH 7.5) containing 200 mM sodium chloride, 5 mM calcium chloride, 10 μM zinc sulfate, 0.004% sodium azide, and 0.05% PLURONIC F-68) were mixed, and reacted at 37° C. for 1.5 hours. Subsequently, using a fluorescent intensity meter (Fluoroskan Ascent), the reaction liquid was analyzed at an excitation wavelength of 355 nm and at a measuring wavelength of 460 nm to determine the enzymatic activity therein.
(§2) From the enzymatic activity in the presence or absence of the test compound, the inhibitory percentage was determined, and the 50% inhibitory concentration (IC50) of the test compound was calculated.
The 50% inhibitory concentration against ADAM17 of the N-hydroxyformamide derivative of the invention, as determined in this test, was shown in Table 1.

ADAM10 = molecular target: T2, ADAM10 (Homo sapiens, UniProt O14672); test: ADAM10 inhibition test; format: biochemical; details: recombinant ADAM10 (cDNA from THP-1 cells), fluorescent synthetic substrate Nma-[…]Dnp-D-Arg-NH2, 25° C., 5 hours; read-out: IC50 Value (50% inhibitory concentration against ADAM10)
T2 construct: made in house; host or cells: mammal cells or insect cells (not specified which)
T2 sequence (O14672 214-748): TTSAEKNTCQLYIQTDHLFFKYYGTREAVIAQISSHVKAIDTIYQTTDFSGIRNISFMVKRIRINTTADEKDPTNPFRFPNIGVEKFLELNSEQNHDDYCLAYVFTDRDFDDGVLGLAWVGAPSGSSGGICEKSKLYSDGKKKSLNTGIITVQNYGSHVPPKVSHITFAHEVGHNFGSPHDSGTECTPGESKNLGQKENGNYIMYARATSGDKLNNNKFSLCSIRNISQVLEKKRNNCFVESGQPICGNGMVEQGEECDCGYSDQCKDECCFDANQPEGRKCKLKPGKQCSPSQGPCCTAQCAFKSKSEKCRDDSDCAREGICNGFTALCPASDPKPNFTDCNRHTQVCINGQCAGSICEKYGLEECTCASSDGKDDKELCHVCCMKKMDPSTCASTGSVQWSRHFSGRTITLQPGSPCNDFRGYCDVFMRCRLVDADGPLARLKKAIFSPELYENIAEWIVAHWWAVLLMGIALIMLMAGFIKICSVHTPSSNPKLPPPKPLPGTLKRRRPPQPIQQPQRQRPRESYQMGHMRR
From the text: The cDNA of ADAM10 was obtained from THP-1 cells in the usual way, and this was inserted into an expression vector, and thereafter the vector was transformed in mammal cells or insect cells to thereby make the cells express ADAM10. In the ADAM10 inhibition test, ADAM10 obtained in the manner as above was used as an enzyme, and a fluorescent synthetic substrate Nma (N-methylanthranylic acid)-[…]Dnp (dinitrophenyl)-D-Arg-NH2 was used as the substrate. Using these in the test, the ADAM10 activity in the presence or absence of the test substance was measured. The method of ADAM10 inhibition test is mentioned below.
as §1, with “liquid” for “liquid as”, “using” for “to have 14 units in”, “albumin),” for “albumin) (the amount of enzyme capable of decomposing 1 pmol of substrate at 25° C. for 1 minute was defined to be 1 unit),”, “25°” for “37°”, “5” for “1.5”
as §2
The 50% inhibitory concentration against ADAM10 of the N-hydroxyformamide derivative of the invention, as determined in this test, was shown in Table 2.

T1 sequence (P78536 215-824): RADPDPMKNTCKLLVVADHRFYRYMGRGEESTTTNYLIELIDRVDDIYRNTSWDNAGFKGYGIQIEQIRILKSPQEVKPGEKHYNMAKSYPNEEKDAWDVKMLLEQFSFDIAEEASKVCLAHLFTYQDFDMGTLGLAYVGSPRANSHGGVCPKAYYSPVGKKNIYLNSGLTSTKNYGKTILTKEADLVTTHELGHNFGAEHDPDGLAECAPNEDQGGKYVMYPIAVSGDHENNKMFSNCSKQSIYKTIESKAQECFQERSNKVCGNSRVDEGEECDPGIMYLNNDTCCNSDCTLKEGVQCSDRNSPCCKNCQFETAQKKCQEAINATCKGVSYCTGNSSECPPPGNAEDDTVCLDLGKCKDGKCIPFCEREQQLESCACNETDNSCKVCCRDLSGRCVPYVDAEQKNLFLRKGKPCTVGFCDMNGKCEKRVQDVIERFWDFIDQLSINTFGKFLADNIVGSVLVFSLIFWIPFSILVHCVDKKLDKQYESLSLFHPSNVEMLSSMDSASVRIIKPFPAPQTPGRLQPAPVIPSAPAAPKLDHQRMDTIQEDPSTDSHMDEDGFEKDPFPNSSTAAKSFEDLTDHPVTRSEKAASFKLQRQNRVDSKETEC

| SMILES | IC50 (ADAM17) [nM] | IC50 (ADAM10) [nM] |
| --- | --- | --- |
| CCC#CCOc1ccc(S(=O)(=O)CC(c2ccc(CN3CCOCC3)cc2)N(O)C=O)cc1 (centres unmarked) [Compound I-7, N-Hydroxy-N-[1-(4-morpholin-4-ylmethylphenyl)-2-(4-pent-2-ynyloxybenzenesulfonyl)ethyl]formamide] | 55 | 90 |
| CC#CCOc1ccc(S(=O)(=O)CC(c2ccc(CNC(=O)COC)cc2)N(O)C=O)cc1 (centres unmarked) [Compound I-3, N-{4-[2-(4-But-2-ynyloxybenzenesulfonyl)-1-(formylhydroxyamino)ethyl]benzyl}-2-methoxyacetamide] | 8.2 | 42 |
| CC#CCOc1ccc(S(=O)(=O)CC(c2ccc(CN3CCOCC3)cc2)N(O)C=O)cc1 (centres unmarked) [Compound I-6, N-[2-(4-But-2-ynyloxybenzenesulfonyl)-1-(4-morpholin-4-ylmethylphenyl)ethyl]-N-hydroxyformamide] | 18 | 70 |

Now those with a lower IC50 (ADAM17), led by results:

| IC50 (ADAM17) [nM] | IC50 (ADAM10) [nM] | SMILES |
| --- | --- | --- |
| 7.2 | 22 | CC#CCOc1ccc(S(=O)(=O)CC(c2ccc(CN(C)C)cc2)N(O)C=O)cc1 (centres unmarked) [Compound I-2, N-[2-(4-But-2-ynyloxybenzenesulfonyl)-1-(4-dimethylaminomethylphenyl)ethyl]-N-hydroxyformamide] |
| 7.2 | 19 | CC#CCOc1ccc(S(=O)(=O)CC(c2ccc(CNC(=O)c3ccccc3)cc2)N(O)C=O)cc1 (centres unmarked) [Compound I-5, N-{4-[2-(4-But-2-ynyloxybenzenesulfonyl)-1-(formylhydroxyamino)ethyl]benzyl}benzamide] |
| 5.8 | 40 | CC#CCOc1ccc(S(=O)(=O)CC(c2ccc(CNS(C)(=O)=O)cc2)N(O)C=O)cc1 (centres unmarked) [Compound I-4, N-{4-[2-(4-But-2-ynyloxybenzenesulfonyl)-1-(formylhydroxyamino)ethyl]benzyl}methanesulfonamide] |
| 5.2 | 13 | CC#CCOc1ccc(S(=O)(=O)CC(c2ccc(CN(CC)CC)cc2)N(O)C=O)cc1 (centres unmarked) [Compound I-1, N-[2-(4-But-2-ynyloxybenzenesulfonyl)-1-(4-diethylaminomethylphenyl)ethyl]-N-hydroxyformamide] |
